Test results published in ChEMBL document CHEMBL1201862, “PubChem BioAssay data set” (2004).
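Five compound concentrations were applied to cells in 96-well plates for 48 hours; endpoints were derived by simple linear interpolation of the resulting dose-response curve. The concentration for 50% growth inhibition is given as GI50.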 The source made the active and inactive calls. Cut-off read from the data, not from the text of the source: active = GI50 up to about 1.1 µM and inactive = higher.

Assays:
Assay in all cases: growth of human tumour cells (NCI), 48 h
U-251 = system: U-251
LOX IMVI = system: LOX IMVI
NCI-H226 = system: NCI-H226
T47D = system: T47D
HCT-116 = system: HCT-116
MOLT-4 = system: MOLT-4
NCI-H522 = system: NCI-H522
SK-MEL-28 = system: SK-MEL-28
MCF7 = system: MCF7
KM12 = system: KM12
BT-549 = system: BT-549
SK-OV-3 = system: SK-OV-3
HL-60 = system: HL-60
NCI-H460 = system: NCI-H460
CCRF-CEM = system: CCRF-CEM
UO-31 = system: UO-31
SNB-19 = system: SNB-19
DU-145 = system: DU-145
COLO 205 = system: COLO 205

| Compound | GI50 (U-251) | GI50 (LOX IMVI) | GI50 (NCI-H226) | GI50 (T47D) | GI50 (HCT-116) | GI50 (MOLT-4) | GI50 (NCI-H522) | GI50 (SK-MEL-28) | GI50 (MCF7) | GI50 (KM12) | GI50 (BT-549) | GI50 (SK-OV-3) | GI50 (HL-60) | GI50 (NCI-H460) | GI50 (CCRF-CEM) | GI50 (UO-31) | GI50 (SNB-19) | GI50 (DU-145) | GI50 (COLO 205) |
| --- | --- | --- | --- | --- | --- | --- | --- | --- | --- | --- | --- | --- | --- | --- | --- | --- | --- | --- | --- |
| Cc1cc(Cl)ccc1NC(=O)/C(Cc1nc2ccc(C(=O)c3ccccc3)cc2nc1O)=N/NC(=O)c1ccncc1 | > 100 µM (inactive) | > 100 µM (inactive) | 1.72 µM (inactive) | > 100 µM (inactive) | 50.6 µM (inactive) | 64.3 µM (inactive) | > 100 µM (inactive) | > 100 µM (inactive) | > 100 µM (inactive) | 39.1 µM (inactive) | > 100 µM (inactive) | > 100 µM (inactive) | 95.9 µM (inactive) | > 100 µM (inactive) | > 100 µM (inactive) | 53.8 µM (inactive) | > 100 µM (inactive) |  |  |
| COc1ccccc1Cn1c2c(c3cc(O)ccc31)C(=O)c1ccccc1C2=O | 16 µM (inactive) | 12.4 µM (inactive) | 21.6 µM (inactive) |  | 23.8 µM (inactive) | > 100 µM (inactive) |  | 76.4 µM (inactive) | 10.1 µM (inactive) | 70.6 µM (inactive) | > 100 µM (inactive) | 2.42 µM (inactive) | > 100 µM (inactive) | 26.2 µM (inactive) | 37.5 µM (inactive) | 48 µM (inactive) | 27.1 µM (inactive) | 39.4 µM (inactive) | 61.9 µM (inactive) |
| O=C(/C=C/c1ccccc1)CCC1C(=O)NC(=S)NC1=O | > 100 µM (inactive) | > 100 µM (inactive) | > 100 µM (inactive) | > 100 µM (inactive) | > 100 µM (inactive) | > 100 µM (inactive) |  | > 100 µM (inactive) |  |  | > 100 µM (inactive) | > 100 µM (inactive) |  | > 100 µM (inactive) |  | > 100 µM (inactive) | > 100 µM (inactive) | > 100 µM (inactive) | > 100 µM (inactive) |
| COc1cccc2c1NC(=O)Cc1c-2[nH]c2ccccc12 | > 100 µM (inactive) | > 100 µM (inactive) | > 100 µM (inactive) | 40.6 µM (inactive) |  | 13.6 µM (inactive) | 49.9 µM (inactive) | 30.8 µM (inactive) | 88.5 µM (inactive) | 46.9 µM (inactive) |  | > 100 µM (inactive) | > 100 µM (inactive) | 35.1 µM (inactive) | > 100 µM (inactive) | > 100 µM (inactive) |  | > 100 µM (inactive) | > 100 µM (inactive) |
| NCCC(=O)N[C@H](Cc1cc(O)c(O)c(SCC(NC(=O)CC[C@H](N)C(=O)O)C(=O)NCC(=O)O)c1)C(=O)O (stereo not given in full) | > 50 µM (inactive) |  | > 50 µM (inactive) |  | > 50 µM (inactive) |  | > 50 µM (inactive) | > 50 µM (inactive) | > 50 µM (inactive) | > 50 µM (inactive) | > 50 µM (inactive) | > 50 µM (inactive) |  | > 50 µM (inactive) |  | > 50 µM (inactive) | > 50 µM (inactive) | > 50 µM (inactive) | > 50 µM (inactive) |
| NNC(=O)c1nnn(N)c1S | > 100 µM (inactive) | 79.6 µM (inactive) | > 100 µM (inactive) | > 100 µM (inactive) | > 100 µM (inactive) | > 100 µM (inactive) | > 100 µM (inactive) | > 100 µM (inactive) |  | 13.5 µM (inactive) | > 100 µM (inactive) | > 100 µM (inactive) | 1 µM (active) | > 100 µM (inactive) | 66.1 µM (inactive) | > 100 µM (inactive) |  | > 100 µM (inactive) | > 100 µM (inactive) |
| COc1ccc(Cn2c(C)nc3c2C(=O)c2ccccc2C3=O)cc1 | 6.32 µM (inactive) | 2.52 µM (inactive) | 14.3 µM (inactive) |  | 3.74 µM (inactive) | 2.59 µM (inactive) | 6.01 µM (inactive) | 21 µM (inactive) |  | 5.31 µM (inactive) |  | 14.8 µM (inactive) | 4.17 µM (inactive) | 2.38 µM (inactive) | 4.05 µM (inactive) | 10.5 µM (inactive) | 22.3 µM (inactive) |  | 9.02 µM (inactive) |
| CCN1C/C(=C\c2ccc(Cl)cc2)c2[nH]c(=O)c(C#N)c(-c3ccc(Cl)cc3)c2C1 | > 100 µM (inactive) | > 100 µM (inactive) | > 100 µM (inactive) | > 100 µM (inactive) | > 100 µM (inactive) | 21.2 µM (inactive) |  | > 100 µM (inactive) | > 100 µM (inactive) | > 100 µM (inactive) | > 100 µM (inactive) | > 100 µM (inactive) | > 100 µM (inactive) | > 100 µM (inactive) | 71.6 µM (inactive) |  | > 100 µM (inactive) | > 100 µM (inactive) | > 100 µM (inactive) |
| NC(Cc1ccc(B(O)O)cc1)C(=O)NC(CO)CO (stereo not given) | > 100 µM (inactive) | > 100 µM (inactive) | > 100 µM (inactive) |  | > 100 µM (inactive) | > 100 µM (inactive) | > 100 µM (inactive) | > 100 µM (inactive) |  | > 100 µM (inactive) | > 100 µM (inactive) | > 100 µM (inactive) |  | > 100 µM (inactive) | > 100 µM (inactive) | > 100 µM (inactive) | > 100 µM (inactive) |  | > 100 µM (inactive) |
| COc1ccc2[nH]c3c([N+](=O)[O-])ccc(NCCCN(C)C)c3/c(=N/CCCN(C)C)c2c1 |  | 1.41 µM (inactive) |  | > 10 µM (inactive) |  | 0.31 µM (active) |  | 1.89 µM (inactive) | 0.743 µM (active) | 1.08 µM (active) |  | 2.01 µM (inactive) | 1.77 µM (inactive) |  | 0.448 µM (active) |  |  | 3.24 µM (inactive) |  |
| CC(=O)CCC1(C(=O)OCC(C)C)CCCC1=O (stereo not given) | > 100 µM (inactive) | > 100 µM (inactive) | > 100 µM (inactive) | > 100 µM (inactive) | > 100 µM (inactive) | > 100 µM (inactive) | > 100 µM (inactive) | > 100 µM (inactive) |  | > 100 µM (inactive) | > 100 µM (inactive) | > 100 µM (inactive) | > 100 µM (inactive) | > 100 µM (inactive) | > 100 µM (inactive) | > 100 µM (inactive) | > 100 µM (inactive) | > 100 µM (inactive) | > 100 µM (inactive) |
| C=C1C[C@H]2C=Nc3cc(OCCCOc4cc5c(cc4OC)C(=O)N4CC(=C)C[C@H]4C=N5)c(OC)cc3C(=O)N2C1 [SJG-136] | < 0.01 µM (active) | < 0.01 µM (active) | 0.0122 µM (active) | < 0.01 µM (active) | 0.0103 µM (active) | 0.000136 µM (active) | 0.0014 µM (active) | 0.0141 µM (active) | 0.012 µM (active) | 0.0124 µM (active) | 0.0111 µM (active) | 0.0216 µM (active) | < 0.01 µM (active) | < 0.01 µM (active) | < 0.01 µM (active) | 0.0208 µM (active) | < 0.01 µM (active) |  | < 0.01 µM (active) |
| NNC(=O)Cn1c2ccc(Br)cc2c2nc3ccccc3nc21 | 43.7 µM (inactive) |  | > 100 µM (inactive) | > 100 µM (inactive) |  | 11.7 µM (inactive) |  | 47.8 µM (inactive) | 69.3 µM (inactive) | > 100 µM (inactive) | > 100 µM (inactive) | 43.7 µM (inactive) |  |  |  | 19.9 µM (inactive) | 80 µM (inactive) | > 100 µM (inactive) | > 100 µM (inactive) |
| N#Cc1c(-c2ccccc2)cc(Nc2cccc(C(F)(F)F)c2)n2c1nc1ccccc12 | 0.611 µM (active) | 1.2 µM (inactive) | 0.687 µM (active) | 0.764 µM (active) | 0.471 µM (active) | 0.76 µM (active) | 0.245 µM (active) | 9.12 µM (inactive) |  | 2.17 µM (inactive) | 3.82 µM (inactive) | 1.11 µM (active) |  | 0.766 µM (active) |  |  |  | 4.04 µM (inactive) | 1.04 µM (active) |
| CC(=O)c1cccc(NC(=O)/C(=N\NC(=S)NN)C2C(=O)Nc3ccccc3[S+]2[O-])c1 (stereo not given) | > 100 µM (inactive) | > 100 µM (inactive) | > 100 µM (inactive) | > 100 µM (inactive) | > 100 µM (inactive) | > 100 µM (inactive) | > 100 µM (inactive) | > 100 µM (inactive) | > 100 µM (inactive) | > 100 µM (inactive) | > 100 µM (inactive) | > 100 µM (inactive) | > 100 µM (inactive) |  | > 100 µM (inactive) | > 100 µM (inactive) | > 100 µM (inactive) |  |  |
| CC(=O)OCC1OC(n2c(-c3ccccc3)c(/N=N/c3ccccc3)c(C)c(C#N)c2=S)C(OC(C)=O)C(OC(C)=O)C1OC(C)=O (stereo not given) | > 100 µM (inactive) | > 100 µM (inactive) |  | > 100 µM (inactive) | > 100 µM (inactive) | > 100 µM (inactive) |  | > 100 µM (inactive) | > 100 µM (inactive) | > 100 µM (inactive) | > 100 µM (inactive) | > 100 µM (inactive) | > 100 µM (inactive) | > 100 µM (inactive) | > 100 µM (inactive) | > 100 µM (inactive) | > 100 µM (inactive) | > 100 µM (inactive) | > 100 µM (inactive) |
| CCCCC(=O)Nc1ccc2cc(C(=O)OC)c(ON3C(=O)c4ccccc4C3=O)nc2n1 | 26.5 µM (inactive) | 31 µM (inactive) | 22.5 µM (inactive) | 35.3 µM (inactive) | 15.7 µM (inactive) | 28.9 µM (inactive) | 23.3 µM (inactive) | 23.2 µM (inactive) | 43.2 µM (inactive) | 30.3 µM (inactive) | 38.3 µM (inactive) | 48.1 µM (inactive) |  | 15.3 µM (inactive) | 71.3 µM (inactive) | 18.2 µM (inactive) | 27.9 µM (inactive) |  | 64.4 µM (inactive) |
